Strand notation (5' to 3'): a small letter for the sugar, then the base; units joined by * are phosphorothioate-linked, units joined directly phosphodiester-linked; [ ] holds rarer units or linkages, { } end groups; capitals alone tell only the bases. e = 2'-O-(2-methoxyethyl) (MOE); [5mC] = 5-methylcytosine; d = 2'-deoxy (DNA)
Tested on: human hepatocyte growth factor receptor mRNA
Test: Inhibition of human hepatocyte growth factor receptor mRNA levels in T-24 cells, quantitative real-time PCR; also: test concentration or dose not given here
Settings: averages from three experiments

Row | Substance | % INHIB (inhibition of human hepatocyte growth factor receptor mRNA levels)
1 | 155130 (antisense eT*e[5mC]*eT*e[5mC]*eT*dG*dA*dA*d[5mC]*dT*d[5mC]*dA*dG*dG*dT*eA*eA*eA*eA*e[5mC]) [compound 155130] | 83%
2 | 209522 (antisense eA*eG*eA*eG*eG*dT*dT*dT*dA*dT*d[5mC]*dT*dT*dT*d[5mC]*eG*eG*eT*eG*e[5mC]) [compound 209522] | 73%
3 | 155121 (antisense eT*eG*eA*eA*eA*dG*dG*dA*d[5mC]*dT*dT*dT*dG*dG*d[5mC]*eT*e[5mC]*e[5mC]*e[5mC]*eA) [compound 155121] | 79%
4 | 209521 (antisense eG*eG*eA*eA*e[5mC]*d[5mC]*dA*dG*dT*dG*dG*dA*dG*dA*dA*eG*eT*e[5mC]*eA*eG) [compound 209521] | 58%
5 | 155107 (antisense eT*e[5mC]*e[5mC]*eG*e[5mC]*dG*dG*dT*dG*dA*dA*dG*dT*dT*dG*eG*eG*eA*eA*eG) [compound 155107] | 42%
6 | 155122 (antisense eA*eA*eG*e[5mC]*e[5mC]*dT*dA*dT*d[5mC]*d[5mC]*dA*dA*dA*dT*dG*eA*eG*eG*eA*eG) [compound 155122] | 69%
7 | 155131 (antisense e[5mC]*eA*eA*eT*eT*dT*dG*dG*d[5mC]*dA*dA*dG*dG*dA*dG*e[5mC]*eA*eA*eA*eG) [compound 155131] | 0%
8 | 155120 (antisense eG*eT*eG*eT*e[5mC]*d[5mC]*dT*dA*dT*dT*dA*dA*dA*dG*d[5mC]*eA*eG*eT*eG*e[5mC]) [compound 155120] | 90%
9 | 155125 (antisense eG*eG*eA*eA*eA*d[5mC]*dT*dG*dA*dT*d[5mC]*dT*dT*d[5mC]*dT*eG*eG*eA*eA*eA) [compound 155125] | 52%
10 | 155109 (antisense eA*eG*e[5mC]*eT*e[5mC]*dG*d[5mC]*dT*dG*dT*dT*d[5mC]*dA*dA*dT*eT*eT*e[5mC]*eA*eG) [compound 155109] | 80%
11 | 155133 (antisense eA*eA*eA*e[5mC]*e[5mC]*dA*dT*dT*dT*d[5mC]*dT*dG*dT*dA*dG*eT*eT*eG*eG*eG) [compound 155133] | 68%
12 | 155111 (antisense eG*eT*eT*e[5mC]*eG*dG*d[5mC]*dA*dG*dA*dA*dT*d[5mC]*dT*dG*eG*e[5mC]*eT*eT*eG) [compound 155111] | 86%
13 | 209524 (antisense e[5mC]*eT*e[5mC]*eA*eT*dG*dT*dA*dG*dA*dA*dT*dG*dA*d[5mC]*eA*eT*eT*e[5mC]*eT) [compound 209524] | 95%
14 | 155124 (antisense eT*eA*eT*eG*eA*dT*dG*dT*d[5mC]*dT*d[5mC]*d[5mC]*d[5mC]*dA*dG*eA*eA*eG*eG*eA) [compound 155124] | 53%
15 | 155113 (antisense e[5mC]*eT*eA*eA*eT*dG*dA*dG*dT*dT*dG*dA*dT*d[5mC]*dA*eT*e[5mC]*eA*eT*eA) [compound 155113] | 83%
16 | 209543 (antisense eG*eA*eT*eG*e[5mC]*d[5mC]*dA*d[5mC]*d[5mC]*dG*dT*dG*d[5mC]*dA*d[5mC]*eT*eG*eT*eG*e[5mC]) [compound 209543] | 85%
17 | 155097 (antisense e[5mC]*e[5mC]*eT*e[5mC]*eG*dG*dT*d[5mC]*dA*dG*dA*dA*dA*dT*dT*eG*eG*eG*eA*eA) [compound 155097] | 53%
18 | 155104 (antisense eA*eT*eG*e[5mC]*eA*dA*dT*dG*dG*dA*dT*dG*dA*dT*d[5mC]*eT*eG*eG*eG*eA) [compound 155104] | 84%
19 | 209536 (antisense e[5mC]*e[5mC]*eT*e[5mC]*e[5mC]*d[5mC]*dA*dT*dA*d[5mC]*dT*dA*dG*dA*dG*eA*eA*eG*eT*eA) [compound 209536] | 36%
20 | 155110 (antisense eT*e[5mC]*eG*eG*eG*dA*d[5mC]*dA*d[5mC]*dT*dA*dA*d[5mC]*dT*dG*eA*eA*eT*eT*e[5mC]) [compound 155110] | 79%
21 | 209529 (antisense e[5mC]*e[5mC]*e[5mC]*eA*eG*d[5mC]*d[5mC]*dA*d[5mC]*dA*dT*dA*dT*dG*dG*eT*e[5mC]*eA*eG*e[5mC]) [compound 209529] | 87%
22 | 155129 (antisense eG*eA*eT*eT*eG*dG*dG*dT*d[5mC]*d[5mC]*dG*dT*dA*dA*dA*eA*eA*eT*eG*e[5mC]) [compound 155129] | 59%

Row | Substance | % INHIB (inhibition of human hepatocyte growth factor receptor mRNA levels)
23 | 209538 (antisense eT*eG*eT*eG*eA*d[5mC]*dT*dT*dA*d[5mC]*d[5mC]*d[5mC]*dT*dA*dT*eT*eA*eA*eA*eG) [compound 209538] | 28%
24 | 209555 (antisense eG*e[5mC]*eG*e[5mC]*eG*d[5mC]*dT*dG*d[5mC]*d[5mC]*d[5mC]*dT*dG*d[5mC]*d[5mC]*eA*eG*eT*eG*eA) [compound 209555] | 0%
25 | 155101 (antisense eT*eT*e[5mC]*eA*eG*d[5mC]*d[5mC]*dA*d[5mC]*dA*dG*dG*dA*dA*dA*eA*eA*e[5mC]*e[5mC]*e[5mC]) [compound 155101] | 40%
26 | 155102 (antisense eG*eA*eG*eA*eG*dG*d[5mC]*dA*dT*dT*dG*dA*d[5mC]*dT*dG*e[5mC]*eA*eG*eG*eA) [compound 155102] | 35%
27 | 209530 (antisense eT*eT*eA*e[5mC]*eA*dG*dG*dA*dT*d[5mC]*d[5mC]*dA*d[5mC]*dA*dT*eA*eG*eG*eA*eG) [compound 209530] | 81%
28 | 209546 (antisense eA*eA*eT*eT*e[5mC]*dA*dA*dG*dT*dT*dT*dT*dG*dG*dA*e[5mC]*eT*e[5mC]*e[5mC]*eA) [compound 209546] | 76%
29 | 155115 (antisense eA*eG*eT*eT*e[5mC]*d[5mC]*dT*dT*d[5mC]*d[5mC]*dT*dG*d[5mC]*dT*dT*e[5mC]*eA*eT*eG*e[5mC]) [compound 155115] | 89%
30 | 155116 (antisense eA*eA*eA*eT*e[5mC]*dT*dT*dT*d[5mC]*dA*dT*dG*dA*dT*dG*eA*eT*eT*e[5mC]*e[5mC]) [compound 155116] | 54%
31 | 209553 (antisense e[5mC]*eG*e[5mC]*e[5mC]*e[5mC]*dA*d[5mC]*dG*dA*d[5mC]*dA*dA*dG*dG*dT*eG*eA*eA*eA*e[5mC]) [compound 209553] | 0%
32 | 209534 (antisense eA*eG*e[5mC]*eA*eT*dT*dA*d[5mC]*dT*dT*d[5mC]*dA*dT*dA*dT*eA*eA*eG*eG*eG) [compound 209534] | 35%
33 | 209542 (antisense e[5mC]*eT*eT*eG*e[5mC]*dT*dT*d[5mC]*d[5mC]*dA*d[5mC]*dT*dA*dA*dA*eA*eA*eT*eG*eA) [compound 209542] | 74%
34 | 209548 (antisense eT*e[5mC]*eA*eA*eG*dA*dA*dG*d[5mC]*d[5mC]*d[5mC]*dT*d[5mC]*dA*dA*eT*eA*eT*eT*eT) [compound 209548] | 67%
35 | 155108 (antisense eA*eT*eT*e[5mC]*eT*d[5mC]*dG*dG*dG*dA*d[5mC]*dA*d[5mC]*dT*dA*eA*e[5mC]*eT*eG*eA) [compound 155108] | 79%
36 | 209535 (antisense eA*eT*eA*eA*e[5mC]*dA*dA*dT*dA*d[5mC]*dA*dA*dG*dT*d[5mC]*e[5mC]*eT*eA*eT*eG) [compound 209535] | 39%
37 | 155118 (antisense e[5mC]*eA*eT*e[5mC]*e[5mC]*dA*dG*d[5mC]*dA*dT*dA*d[5mC]*dA*dG*dT*eT*eT*e[5mC]*eT*eT) [compound 155118] | 55%
38 | 209533 (antisense e[5mC]*eA*e[5mC]*e[5mC]*eA*d[5mC]*dT*dG*dG*d[5mC]*dA*dA*dA*dG*d[5mC]*eA*eA*eA*eA*eT) [compound 209533] | 47%
39 | 155100 (antisense eA*eG*e[5mC]*eT*eG*dA*dT*dA*d[5mC]*dT*dT*d[5mC]*dA*dT*dA*eT*eT*e[5mC]*eA*e[5mC]) [compound 155100] | 0%
40 | 155119 (antisense eA*eA*eG*eT*eA*dT*dA*dT*dT*dA*dA*dA*d[5mC]*dA*d[5mC]*eT*eT*e[5mC]*e[5mC]*eT) [compound 155119] | 92%
41 | 209525 (antisense e[5mC]*eT*eG*eG*eT*d[5mC]*d[5mC]*dG*dT*d[5mC]*dA*dA*dA*dA*dA*e[5mC]*eA*eT*eA*eA) [compound 209525] | 89%
42 | 209539 (antisense eG*e[5mC]*eT*eT*e[5mC]*d[5mC]*d[5mC]*d[5mC]*dA*dT*dT*dG*d[5mC]*dT*dG*eT*eT*eA*eG*eG) [compound 209539] | 57%
43 | 155127 (antisense eG*eA*eT*e[5mC]*eT*dG*dG*dT*dT*dG*dA*dA*d[5mC]*dT*dA*eT*eT*eA*e[5mC]*eT) [compound 155127] | 84%
44 | 209554 (antisense eA*eG*eA*eG*eG*dG*dA*dA*dA*dT*d[5mC]*dG*dG*d[5mC]*d[5mC]*e[5mC]*e[5mC]*e[5mC]*eG*e[5mC]) [compound 209554] | 0%

— patent US20040102622A1, “Modulation of hepatocyte growth factor receptor expression” (Isis Pharmaceuticals Inc., priority 2002, published 2004)
